Assay results: US20210113594A1, “TUMOR IMMUNOMODULATOR” (OSAKA UNIVERSITY, priority 2018, published 2021)

Assays:
[1] = tested on: U251 cell line; experiment: Tumor-cytotoxic activity using peripheral blood mononuclear cells with EphA2-CD3 BiTE; conditions: test drug 2.5 μM + BiTE 100 ng/mL; PBMCs of healthy people + U251; 48 hours; n=3; DMC, MC, CTC p<0.01; TC, MINO p<0.05
Protocol: Thereafter, by measuring the degree of cytotoxicity to the tumor cells (tumor-cytotoxic activity) by the PBMCs, the anti-tumor activity of T cells in the PBMCs was evaluated.
(1) A U251 cell line was suspended in a RPMI1640 medium containing 10% FBS (a 10% FBS-supplemented RPMI1640 medium), and then detached with trypsin. The cell line was suspended in a 10% FBS-supplemented RPMI1640 medium such that the cell count was 1×10^5/mL, thereby preparing a cell suspension. The cell suspension was seeded in a 96-well plate at a rate of 100 μL/well, and incubated in a wet incubator at 37° C. for 18 hours in the presence of 5% CO2 gas. […]
(3) EphA 2-CD3 BiTE (registered trademark) containing an antigen-binding domain for EphA2 and an antigen-binding domain for CD3 in the molecule was prepared at 400 ng/mL in a 10% FBS-supplemented RPMI 1640 medium (“BiTE solution”). […] The amount of the 10% FBS-supplemented RPMI medium per well was determined so that the total final amount was 200 μL. […]
(5) The absorbance at 492 nm of each well of the 96-well microplate after the completion of incubation in step (4) was measured with a microplate reader. Subsequently, tumor-cytotoxic activity was calculated in accordance with the following equation.
Absorbance of a well consisting of U251 cell line and PBMCs=A […]

[2] = tested on: granzyme B-expressing CD8+T cells; experiment: Granzyme B staining (FACS) of PBMCs; type: cell-based, human; conditions: DMC 2.5 μM + BiTE; PBMCs of four healthy people; p=0.01
Protocol: The medium collected in section 1(4) above was centrifuged at 400 g for 5 minutes, and the supernatant was removed to leave the PBMC pellet. Each antibody (CD3, CD4, CD8, and CD45RA) was diluted 100-fold with 2% FBS- and 10 mM HEPES-supplemented HBSS medium (“HBSS+2% FBS+10 mM HEPES” medium). Such antibody diluents were individually added at 30 μL/tube to the pellet in which the supernatant was removed, followed by incubation at 4° C. for 30 minutes. After an HBSS+2% FBS+10 mM HEPES medium was added at 200 μL/tube, and centrifugation was performed at 400 g for 5 minutes, the supernatant was removed to leave the pellet. After the remaining PBMCs were suspended by adding a fix buffer at 100 μL/tube, incubation was performed for 30 minutes at 4° C.
The tube obtained after the completion of incubation was centrifuged at 400 g for 5 minutes to remove the supernatant and leave the PBMC pellet. After a wash buffer was added at 200 μL/tube to suspend the pellet, centrifugation was performed at 400 g for 5 minutes to remove the supernatant and leave the PBMC pellet. An anti-Granzyme B antibody was diluted 100-fold in a wash buffer, and the remaining PBMCs were suspended in the antibody diluent (30 μL/tube), followed by incubation for 30 minutes at 4° C. […]

[3] = tested on: CD8+T cells; experiment: CytoTell assay, proliferative capacity of CD8+T cells; type: cell-based, human; conditions: DMC 2.5 μM + BiTE; PBMCs of five healthy people; 96 hours; p=0.007
Protocol: PBMCs were collected from peripheral blood of healthy people according to the method described in section 1(1) above. A solution in which CytoTell red was mixed with the HBSS+2% FBS+10 mM HEPES medium was added to the collected PBMC pellet, followed by incubation at 37° C. for 30 minutes. After the completion of incubation, the supernatant was removed by centrifugation at 400 g for 5 minutes to leave the PBMC pellet. By adding a 10% FBS-supplemented RPMI medium, the remaining PBMCs were suspended to prepare a suspension of PBMCs having a cell count of 1×10^6/mL.
As in section 1(3) above, a U251 cell line, PBMCs, and BiTE, or a U251 cell line, PBMC, BiTE, and a test drug, were contacted and cultured at 37° C. for 96 hours.
After the completion of culture, the culture supernatant was collected, followed by washing in a 10% FBS-supplemented RPMI 1640 medium three times, and the media were also collected.
The collected medium was centrifuged at 400 g for 5 min, and the supernatant was removed to leave the PBMC pellet. Each antibody (CD3, CD4, CD8, and CD45RA) was diluted 100-fold with a HBSS+2% FBS+10 mM HEPES medium. The antibody diluents were individually added at 30 μL/tube to the pellet to suspend the remaining PBMCs, followed by incubation at 4° C. for 30 minutes. […]

[4] = tested on: IFNγ-producing CD8+T cells; experiment: IFNγ production assay on cells from lung cancer tissue; type: cell-based, human; conditions: BiTE + test drug (DMC), n=3 patients
Protocol: The IFNγ production capacity of cells in all media that were collected in section 5 in accordance with the method described in section 1(4) above was measured using an IFNγ secretion assay kit (Miltenyi Biotec).
The medium collected in section 1(4) above was centrifuged at 400 g for 5 minutes to remove the supernatant. An IFNγ catch reagent diluted 100-fold in a 10% human serum-supplemented AIM medium was added at 100 μL/tube to the remaining PBMC pellet to suspend the PBMCs, followed by incubation at 4° C. for 10 minutes.
A 10% human serum-supplemented AIM medium heated to 37° C. was dispensed at 1 mL/tube into the tube subjected to the incubation. While stirring the tube, incubation was performed at 37° C. for 45 minutes. […]
(§1) According to the method described in section I.5 above, T cells in tumor tissue of a lung cancer patient were collected; and by using such cells, tumor-cytotoxic activity was measured to examine the effect of the tetracycline-based compound. Specifically, T cells in tumor tissue of a lung cancer patient were collected according to the method described in section I.5 above; and the presence ratio of IFNγ-producing CD8^+T cells was measured according to the method described in section I.6 above, thus examining the effect of the tetracycline-based compound.

[5] = tested on: CMV-specific cytotoxic T cells; experiment: CMV-specific CTL induction (mixed CMV peptide/lymphocytes culture); type: cell-based, human; conditions: DMC 2.5 μM; 14 days after CMV peptide stimulation; PBMCs of one healthy person; p<0.05
Protocol: CMV peptides adjusted to 10 μg/mL in a 10% FBS-supplemented RPMI medium was added to PBMCs of healthy people with an HLA type of 24:02, followed by culture in a 96-well plate for 3 days. […] The medium containing PBMCs in each well was transferred into a 24-well plate for scale-up, followed by culture for another 3 days in a 10% FBS-supplemented RPMI medium containing 10 μg/mL peptide+20 U/mL IL-2±2.5 μM DMC. The medium was replaced with a 10% FBS-supplemented RPMI medium containing 10 μg/mL peptide+20 U/mL IL-2±2.5 μM DMC, followed by culture for another 4 days (culture for 14 days).
After the completion of culture, centrifugation was performed at 400 g for 5 minutes to remove the supernatant and leave the PBMC pellet; and each antibody (CD3, CD4, and CD8) was diluted 100-fold, and CMV Tetramer was diluted 10-fold in a HBSS+2% FBS+10 mM HEPES medium, and added at 30 μL/tube to a PBMC pellet to suspend the PBMCs, followed by incubation at 4° C. for 30 minutes. By adding the HBSS+2% FBS+10 mM HEPES medium at 200 μL/tube, centrifugation was performed at 400 g for 5 minutes. The supernatant was removed to leave the PBMC pellet.
The PBMCs left in the HBSS+2% FBS+10 mM HEPES medium were suspended, and the suspension was subjected to FACS analysis. […]

[6] = tested on: CT26WT cells; experiment: Dependence on CD8+T cells of the enhancement of the anti-PD-L1 antibody in vivo (Example 9); set-up: species or system BALB/c mice
Protocol: In the same manner as in Example 8, CT26WT cells were cultured, and subcutaneously inoculated to 6-week-old BALB/c mice (Day 0).
Before the administration of DMC or water and an anti-PD-L1 antibody, the anti-CD8 antibody (InVivo MAb anti-mouse CD8α, produced by BioXCell) was intraperitoneally administered at 400 μg/200 μL/mouse to the CD8 depletion group on Day 6. Control IgG was administered at 400 μg/200 μL/mouse to the other groups.
Next, administration of DMC was started on Day 7. The DMC was dissolved in saline, and then orally administered at 200 μL/mouse using an oral sonde. In the groups free of DMC, distilled water was orally administered at 200 μL/mouse. The DMC was administered once daily from Day 7 to Day 12.
Subsequently, on Day 10, an anti-PD-L1 antibody or control IgG was intraperitoneally administered at 200 μg/200 μL/mouse.
On Day 10 and Day 13, the tumor size was measured. The tumor volume was calculated in the same manner as in Example 8.

[7] = tested on: U251 cell line; experiment: Tumor-cytotoxic activity of T cells in lung cancer tissue; type: cell-based, human; conditions: BiTE + test drug (DMC); n=5 patients
Protocol: Regarding the tumor-cytotoxic activity of T cells in lung cancer tissue, cells were collected from lung cancer tissue according to the following method. The tumor-cytotoxic activity was measured as the activity of the cell population.
The cancer tissue was transferred to a 6-cm dish and minced. The cancer tissue was then placed in a tissue stirring solution (tumor dissociation Kit (Miltenyi Biotec) was added to HBSS+2% FBS+10 mM HEPES), followed by stirring with a gentle MACS™ Dissociator (Miltenyi Biotec). Incubation was then performed by rotating the mixture in an incubator maintained at 37° C. for 30 minutes. […] The tumor-cytotoxic activity of the collected cells was measured in accordance with the same method as in section I.1(1) to (5) above. […]
as §1

Row | SMILES | T-cell anti-tumor activity (tumor-cytotoxic activity) as compared to BiTE alone [1] | presence ratio of granzyme B-expressing CD8+T cells as compared to BiTE alone [2] | proliferative capacity of CD8+T cells as compared to BiTE alone [3] | presence ratio of IFNγ-producing CD8+T cells compared to BiTE alone [4] | presence ratio of CMV-specific cytotoxic T cells (CMV Tetramer+CD8+T cells), DMC+ as compared to DMC− [5] | tumor volume on Day 13 ([6]; Example 9, DMC 30 mg/kg oral Day 7 to Day 12, anti-PD-L1 antibody or control IgG 200 μg/mouse ip Day 10, no CD8 depletion) | increase in tumor volume as compared to the aPD-L1+H2O group ([6]; IgG+DMC group, DMC 30 mg/kg oral) | anti-tumor activity of T cells in lung cancer tissue compared to BiTE alone [7]
1 | CN(C)[C@@H]1C(=O)C(C(N)=O)=C(O)[C@@]2(O)C(=O)C3=C(O)c4c(O)cccc4[C@@](C)(O)[C@H]3C[C@@H]12 [TC, tetracycline] | enhanced | – | – | – | – | – | – | –
2 | CN(C)[C@@H]1C(O)=C(C(N)=O)C(=O)[C@@]2(O)C(O)=C3C(=O)c4c(O)ccc(Cl)c4[C@@H](O)[C@H]3C[C@@H]12 [DMC, demethyl chlortetracycline] | – | high | high | increased | significantly high | about 100 mm^3 | more inhibited | enhanced
